Measurements as given in ChEMBL document CHEMBL5316276, “Discovery of the First Lactate Dehydrogenase Proteolysis Targeting Chimera Degrader for the Treatment of Pancreatic Cancer” (J Med Chem, 2023).
Each block holds one compound with its values, some of them ahead of it. The source made the active and inactive calls. The rule behind the calls is not given here.

Legend:
[1] = target: T1, von Hippel-Lindau disease tumor suppressor/L-lactate dehydrogenase A chain (Homo sapiens) (UniProt P00338+P40337); experiment: Protac activity at VHL E3 ligase/LDHA in human PANC-1 cells assessed as induction of LDHA degradation at 10 uM incubated for 48 hrs by Western blotting analysis; assay type: cell-based
[2] = target: T2, L-lactate dehydrogenase A chain (Homo sapiens, UniProt P00338); experiment: Inhibition of human LDHA
[3] = target: T3, L-lactate dehydrogenase B chain (Homo sapiens, UniProt P07195); experiment: Inhibition of human LDHB
T3 sequence (P07195 whole entry): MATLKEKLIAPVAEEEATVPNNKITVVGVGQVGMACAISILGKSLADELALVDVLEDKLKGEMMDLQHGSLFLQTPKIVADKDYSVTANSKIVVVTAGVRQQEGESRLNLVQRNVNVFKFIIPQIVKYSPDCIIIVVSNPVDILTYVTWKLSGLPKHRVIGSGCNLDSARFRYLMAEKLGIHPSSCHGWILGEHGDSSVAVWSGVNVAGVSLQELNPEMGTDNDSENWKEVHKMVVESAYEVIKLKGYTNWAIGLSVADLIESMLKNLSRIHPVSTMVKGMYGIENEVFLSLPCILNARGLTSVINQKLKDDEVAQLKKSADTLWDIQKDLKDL

[4] = target: T2, L-lactate dehydrogenase A chain; experiment: Inhibition of recombinant human LDHA
[5] = target: T3, L-lactate dehydrogenase B chain; experiment: Inhibition of recombinant human LDHB
[6] = tested on: PANC-1; experiment: Antiproliferative activity against human PANC-1 cells assessed as cell growth inhibition incubated for 72 hrs by WST-8 assay; assay type: functional
[7] = tested on: MIA PaCa-2; experiment: Antiproliferative activity against human MIA PaCa-2 cells assessed as cell growth inhibition incubated for 72 hrs by WST-8 assay; assay type: functional
[8] = target: T1, von Hippel-Lindau disease tumor suppressor/L-lactate dehydrogenase A chain (Homo sapiens); experiment: Protac activity at VHL E3 ligase/LDHA in human MIA PaCa-2 cells assessed as induction of LDHA degradation at 0.3 to 3 uM incubated for 24 hrs by Western blotting analysis; assay type: cell-based; details: dose 0.3-3 µM
[9] = tested on: BXPC-3; experiment: Antiproliferative activity against human BXPC-3 cells assessed as cell growth inhibition incubated for 72 hrs by WST-8 assay; assay type: functional, cell-based
[10] = target: T1, von Hippel-Lindau disease tumor suppressor/L-lactate dehydrogenase A chain (Homo sapiens); experiment: Protac activity at VHL/LDHA in human BXPC-3 cells assessed as induction of LDHA degradation at 0.3 to 3 uM incubated for 24 hrs by Western blotting analysis; assay type: cell-based; details: dose 0.3-3 µM

- Activity [1]: Active
Structure (SMILES): Cc1ncsc1-c1ccc(CNC(=O)[C@@H]2C[C@@H](O)CN2C(=O)[C@@H](NC(=O)CCCCCC(=O)NCCCCC#Cc2cccc(-c3nn(-c4nc(C(=O)O)cs4)c(CC4CC4)c3Cc3ccc(S(N)(=O)=O)cc3)c2)C(C)(C)C)cc1

- IC50 [2]: 3 nM
- IC50 [3]: 5 nM
Structure (SMILES): Cc1ccc(C#Cc2cccc(-c3nn(-c4nc(C(=O)O)cs4)c(CC4CC4)c3Cc3ccc(S(N)(=O)=O)c(F)c3)c2)s1

- IC50 [4]: 2.6 nM
- IC50 [5]: 43 nM
Structure (SMILES): Cc1ncsc1-c1ccc(CNC(=O)[C@@H]2C[C@@H](OCc3ccccc3)CN2C(=O)[C@@H](NC(=O)CCCCCCCCCCCC(=O)NCCCCC#Cc2cccc(-c3nn(-c4nc(C(=O)O)cs4)c(CC4CC4)c3Cc3ccc(S(N)(=O)=O)cc3)c2)C(C)(C)C)cc1

- Activity [1]: Active
Structure (SMILES): Cc1ncsc1-c1ccc(CNC(=O)[C@@H]2C[C@@H](O)CN2C(=O)[C@@H](NC(=O)CCCCC(=O)NCCCCC#Cc2cccc(-c3nn(-c4nc(C(=O)O)cs4)c(CC4CC4)c3Cc3ccc(S(N)(=O)=O)cc3)c2)C(C)(C)C)cc1

- Activity [1]: Active
Structure (SMILES): Cc1ncsc1-c1ccc(CNC(=O)[C@@H]2C[C@@H](O)CN2C(=O)[C@@H](NC(=O)CCCCCCC(=O)NCCCCC#Cc2cccc(-c3nn(-c4nc(C(=O)O)cs4)c(CC4CC4)c3Cc3ccc(S(N)(=O)=O)cc3)c2)C(C)(C)C)cc1

- GI50 [6]: > 30000 nM
- GI50 [7]: > 30000 nM
- Activity [8]: inactive
- Activity [10]: inactive
Structure (SMILES): NS(=O)(=O)c1ccc(Cc2c(-c3cccc(-c4ccccc4)c3)nn(-c3nc(C(=O)O)cs3)c2CC2CC2)cc1
- inhibition [9]: inactive
